Results taken from PMC9694926, “Novel Uracil-Based Inhibitors of Acetylcholinesterase with Potency for Treating Memory Impairment in an Animal Model of Alzheimer’s Disease” (Molecules, 2022).
Counter-ions that a name gives are not always drawn. Like-named read-outs stand apart in the source and are kept apart here.

What was measured:
hBChE [1] = target: T1, hBChE (Homo sapiens, UniProt P06276); assay: biochemical; conditions: butyrylthiocholine 1 mM, mean of three independent measurements
T1 construct: hBChE from blood plasma; purchased Sigma-Aldrich; host or cells: human blood plasma
Protocol: (§1) The inhibitory potency of compounds against hAChE and hBChE was studied using Ellman’s method. Acetylthiocholine iodide (ATC), butyrylthiocholine iodide (BTC), recombinant hAChE, hBChE from blood plasma, and 5,5′-dithio-bis-(2-nitrobenzoic) acid (DTNB) were purchased from Sigma-Aldrich (Sigma-Aldrich, St. Louis, MO, USA). Stock solutions of compounds (0.01 M) were prepared using ethanol or water. In the case of compounds soluble in ethanol, the final concentration of ethanol in the cuvette was 0.1% vol. […] The enzyme-catalyzed reaction of hydrolysis was carried out in 0.1 M phosphate buffer at pH 8.0 containing 0.25 units of hAChE or hBChE and 1 mM ATC or BTC as substrates. The tested compounds were pre-incubated with the enzyme for 5 min at 25 °C prior to the addition of the substrate and the commencement of hydrolysis kinetics recording. Experiments were performed in triplicate. […] The sample without substrate was used as a blank. The sample without inhibitor was used as a control (in a solution of 0.1% vol. ethanol in the case of compounds soluble in ethanol). Percentage of AChE/BChE inhibition was determined by comparison of rates of reaction of test samples relative to the control sample. The percentage of inhibition as a function of compound concentration was plotted using OriginPro 8.5 software (OriginLab Corporation, Northampton, MA, USA).

[2] = Acute toxicity (LD50), intraperitoneal injection; format: in vivo; conditions: CD1, mouse, in vivo, ip; mice, i.p. injection
Protocol: (§2) All experiments involving animals were performed in accordance with the guidelines set out by the European Union Council Directive 2010/63/EU; the experimental protocols were approved by the Animal Care and Use Committee of the Federal Research Center “Kazan Scientific Center of the Russian Academy of Sciences”. Toxicological experiments were performed using intraperitoneal injection of the various compounds in CD1 mice weighing 20–25 g. Mice were maintained on a 12 h light/dark cycle (light from 7:00 a.m. to 7:00 p.m.) at 20−22 °C and 60−70% relative humidity. Five different doses (determined during preliminary tests) were used with six animals per dose. Animals were observed 14 days after injection, and symptoms of intoxication were recorded. […] LD50 was determined by the method of Weiss. Stock solutions of compounds were prepared in ethanol or water. Compounds were administered intraperitoneally in sterile physiological saline. The concentration of ethanol in physiological saline was 5% vol.

hAChE [3] = target: T2, hAChE (Homo sapiens, UniProt P22303); assay: biochemical; format: biochemical; conditions: for AChE Selectivity: (IC50 BChE)/(IC50 AChE); for IC50: human AChE, acetylthiocholine 1 mM, mean of three independent measurements
T2 construct: purchased Sigma-Aldrich
Protocol: as §1

hBChE [4] = target: T1, hBChE; conditions: cited from earlier work
CD1 mice [5] = conditions: i.p. injection, cited from earlier work
hAChE [6] = target: T2, hAChE; conditions: cited from earlier work; for IC50: human AChE
CD1 mice [7] = assay: Acute toxicity (LD50), intraperitoneal injection; format: in vivo; conditions: i.p. injection
Protocol: as §2

[8] = test system: scopolamine-induced amnesia in mice; assay: T-maze spatial memory test in scopolamine-induced amnesia model; format: in vivo, CD1 mice; conditions: scopolamine 2 mg/kg i.p.; 1 mg/kg p.o. daily
Protocol: During the first set of in vivo experiments, the ability of compound 2c to reverse the scopolamine-induced amnesia in mice was studied by means of behavioral testing in a T-maze. The percentages of correct choices and mice reaching the criterion of learning were evaluated along with the dynamic of reaching the criterion of learning. Amnesia was caused by intraperitoneal administration of scopolamine (2 mg/kg) 40 min prior to testing. […]. The control group of mice was treated with saline. The behavior of mice was observed within 18 days (Figure 6A).
Scopolamine, representing a muscarinic acetylcholine receptor antagonist, produces a transient receptor blockade and cognitive deficits, which can be considered as a model of AD [28]. CD1 mice were randomly divided into 5 groups (n = 8–10): control group of mice treated with saline; mice injected with a water solution of scopolamine (2 mg/kg, i.p.) at 40 min before testing; […]. Drugs were administered over 18 days.
A reward alternation task was used to assess spatial memory performance in T-maze (OpenScience, Moscow, Russia) as previously described. Briefly, prior to commencing T-maze testing, mice were placed on a food-deprivation schedule over 3 days. […] The percentages of correct choices and mice reaching the criterion of learning were evaluated along with the dynamic of reaching the criterion of learning.

APP/PS1 mice = conditions: 1 mg/kg p.o. daily
From the text: Wild-type and APP/PS1 saline treated mice were employed as negative and positive controls, respectively. The behavior of mice in the T-maze was observed within 18 days (Figure 7A).
Mice were assigned to four groups (n = 8–10). […] APP/PS1 mice and their wild-type non-transgenic littermates that received saline were used as positive and negative controls.
A reward alternation task was used to assess spatial memory performance in T-maze (OpenScience, Moscow, Russia) as previously described [32, 33]. Briefly, prior to commencing T-maze testing, mice were placed on a food-deprivation schedule over 3 days. On the fourth day, mice were placed in the start arm of the T-maze and made it possible to move freely. Over the next 14 days of testing, mice were given 6 pairs of training trials. In the first trial of each pair (forced trial), one of the goal arm guillotine doors was closed and the mouse was constrained to selecting the opposite arm. The mouse was returned to the start box 15–20 s after consuming the reward (diluted sweetened condensed milk). In the second (free choice) trial, both goal arm doors were opened, the arm opposite the one selected in the forced trial was baited. […] The percentages of correct choices and mice reaching the criterion of learning were evaluated along with the dynamic of reaching the criterion of learning.

T1 sequence (P06276 29-602): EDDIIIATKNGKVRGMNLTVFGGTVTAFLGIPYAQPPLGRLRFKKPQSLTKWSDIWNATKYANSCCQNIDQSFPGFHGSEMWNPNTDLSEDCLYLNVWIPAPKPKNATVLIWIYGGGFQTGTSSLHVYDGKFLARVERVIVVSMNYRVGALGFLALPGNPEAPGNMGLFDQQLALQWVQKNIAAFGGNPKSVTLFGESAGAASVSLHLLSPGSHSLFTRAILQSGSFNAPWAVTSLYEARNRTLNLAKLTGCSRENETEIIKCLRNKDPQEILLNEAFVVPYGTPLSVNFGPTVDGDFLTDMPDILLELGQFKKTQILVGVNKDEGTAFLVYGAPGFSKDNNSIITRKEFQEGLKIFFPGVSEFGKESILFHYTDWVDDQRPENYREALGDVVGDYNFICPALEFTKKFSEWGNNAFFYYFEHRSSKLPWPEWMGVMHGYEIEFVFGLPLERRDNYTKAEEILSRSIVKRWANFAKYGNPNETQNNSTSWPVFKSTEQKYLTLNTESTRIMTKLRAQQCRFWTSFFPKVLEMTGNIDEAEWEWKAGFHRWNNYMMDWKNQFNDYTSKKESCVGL
T2 sequence (P22303 32-614): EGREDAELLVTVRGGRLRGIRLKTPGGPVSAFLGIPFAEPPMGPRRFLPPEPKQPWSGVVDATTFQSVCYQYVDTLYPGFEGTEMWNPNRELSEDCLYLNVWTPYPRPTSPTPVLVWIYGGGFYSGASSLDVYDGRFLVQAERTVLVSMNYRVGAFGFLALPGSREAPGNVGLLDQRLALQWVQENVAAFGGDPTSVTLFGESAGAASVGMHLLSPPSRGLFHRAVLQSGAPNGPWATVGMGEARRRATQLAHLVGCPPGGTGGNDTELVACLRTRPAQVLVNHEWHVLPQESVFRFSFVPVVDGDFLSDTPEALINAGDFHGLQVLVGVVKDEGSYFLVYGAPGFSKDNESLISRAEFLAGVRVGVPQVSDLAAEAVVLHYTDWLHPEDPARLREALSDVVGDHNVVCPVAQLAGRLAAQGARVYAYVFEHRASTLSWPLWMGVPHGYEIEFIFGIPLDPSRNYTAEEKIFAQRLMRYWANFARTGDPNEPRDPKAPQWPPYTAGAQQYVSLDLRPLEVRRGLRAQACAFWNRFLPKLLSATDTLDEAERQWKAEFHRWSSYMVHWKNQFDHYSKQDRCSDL

SMILES | IC50 (hBChE [1]) | LD50 at 14 days [2] | AChE Selectivity (hAChE [3]) | IC50 (hAChE [3]) | other results
CCN(CCCCCn1c(=O)c2ccccc2n(CCCCCN(CC)Cc2cccc(C(=O)OC)c2)c1=O)Cc1cccc(C(=O)OC)c1 [4b] | 2.38 ± 0.49 µM | 93 mg/kg | 8.2 | 0.29 ± 0.042 µM | –
CCN(CCCCn1c(C)cc(=O)n(CCCCN(CC)Cc2ccc(C(=O)OC)cc2)c1=O)Cc1ccc(C(=O)OC)cc1 [3a, 1,3-Bis[4-(para-methoxycarbonylbenzylethylamino)butyl]-6-methyluracil] | 128 µM | 51 mg/kg | 39 | 3.3 ± 0.58 µM | –
CCN(CCCCCn1c(C)cc(=O)n(CCCCCN(CC)Cc2ccc(C(=O)OC)cc2)c1=O)Cc1ccc(C(=O)OC)cc1 [3b, 1,3-Bis[5-(para-methoxycarbonylbenzylethylamino)pentyl]-6-methyluracil] | 273 µM | 188 mg/kg | 355.5 | 0.768 ± 0.08 µM | –
CCN(CCCCCn1c(C)cc(=O)n(CCCCCN(CC)Cc2ccccc2C(F)(F)F)c1=O)Cc1ccccc1C(F)(F)F [1b] | – | – | – | – | IC50 (hBChE [4]; ref [12]): 20 µM; LD50 (CD1 mice [5]; ref [12]): 49 mg/kg; IC50 (hAChE [6]; ref [12]): 0.0056 ± 0.0007 µM
CCN(CCCn1c(C)cc(=O)n(CCCN(CC)Cc2cccc(C(=O)OC)c2)c1=O)Cc1cccc(C(=O)OC)c1 [2a, 1,3-Bis[3-(meta-methoxycarbonylbenzylethylamino)propyl]-6-methyluracil] | 16 µM | 170 mg/kg | 0.08 | 210 µM | –
CCN(CCCCCn1c(C)cc(=O)n(CCCCCN(CC)Cc2cccc(C(=O)OC)c2)c1=O)Cc1cccc(C(=O)OC)c1 [compound 9] | – | – | – | – | LD50 (CD1 mice [7]): 96 mg/kg; solubility in water (Solubility in water): water-soluble
COc1cc2c(cc1OC)C(=O)C(CC1CCN(Cc3ccccc3)CC1)C2 (centres unmarked) [Donepezil, donepezil hydrochloride] | – | – | – | – | percentage of correct choices in T-maze [8]: 66.78 ± 2.62%; percentage of mice reaching the criterion of learning by day 14 [8]: 80%; percentage of correct choices in T-maze (APP/PS1 mice): 67.46 ± 2.35%; percentage of mice reaching the criterion of learning (APP/PS1 mice): 50%
CCN(CCCCCCn1c(C)cc(=O)n(CCCCCCN(CC)Cc2cccc(C(=O)OC)c2)c1=O)Cc1cccc(C(=O)OC)c1 [2d, 1,3-Bis[6-(meta-methoxycarbonylbenzylethylamino)hexyl]-6-methyluracil] | 1.34 ± 0.33 µM | 47.5 mg/kg | 285 | 0.0047 ± 0.00017 µM | –
CCN(CCCCCCn1c(C)cc(=O)n(CCCCCCN(CC)Cc2ccc(C(=O)OC)cc2)c1=O)Cc1ccc(C(=O)OC)cc1 [3c, 1,3-Bis[6-(para-methoxycarbonylbenzylethylamino)hexyl]-6-methyluracil] | 59.9 µM | 87 mg/kg | 2218 | 0.027 ± 0.007 µM | selectivity against AChE lower compared to compound 2c (hAChE [3]; AChE vs BChE): more than 15 times
CCN(CCCCn1c(=O)c2ccccc2n(CCCCN(CC)Cc2cccc(C(=O)OC)c2)c1=O)Cc1cccc(C(=O)OC)c1 [4a, 1,3-Bis[4-(meta-methoxycarbonylbenzylethylamino)butyl]-quinazoline-2,4-dione] | 3.16 ± 0.39 µM | 120 mg/kg | 7 | 0.46 ± 0.095 µM | –
CCN(CCCCn1c(C)cc(=O)n(CCCCN(CC)Cc2cccc(C(=O)OC)c2)c1=O)Cc1cccc(C(=O)OC)c1 [2b, 1,3-Bis[4-(meta-methoxycarbonylbenzylethylamino)butyl]-6-methyluracil] | 19.5 µM | 120 mg/kg | 722 | 0.027 ± 0.003 µM | –
CCN(CCCCCn1c(C)cc(=O)n(CCCCCN(CC)Cc2ccccc2[N+](=O)[O-])c1=O)Cc1ccccc1[N+](=O)[O-] [1a] | – | – | – | – | IC50 (hBChE [4]; ref [12]): 35 µM; LD50 (CD1 mice [5]; ref [12]): 51 mg/kg; AChE Selectivity (hAChE [6]; (IC50 BChE)/(IC50 AChE), ref [12]): 10,000; IC50 (hAChE [6]; ref [12]): 0.0035 ± 0.0003 µM
CCN(CCCCCn1c(C)cc(=O)n(CCCCCN(CC)Cc2cccc(C(=O)[O-])c2)c1=O)Cc1cccc(C(=O)[O-])c1.[Na+].[Na+] [2e, 1,3-Bis[5-((meta-methylbenzoate)ethylamino)pentyl]-6-methyluracil disodium salt] | ~21000 µM | 170 mg/kg | 1.6 × 10^6 | 0.013 ± 0.001 µM | –
CCN(CCCCCn1c(C)cc(=O)n(CCCCCN(CC)Cc2ccc(C(=O)[O-])cc2)c1=O)Cc1ccc(C(=O)[O-])cc1.[Na+].[Na+] [3d, 1,3-Bis[5-((para-methylbenzoate)ethylamino)pentyl]-6-methyluracil disodium salt] | > 100000 µM | 168 mg/kg | – | 0.0046 ± 0.0004 µM | –
CCN(CCCCCn1c(C)cc(=O)n(CCCCCN(CC)Cc2ccccc2C#N)c1=O)Cc1ccccc1C#N [1c] | – | – | – | – | IC50 (hBChE [4]; ref [14]): 100 µM; LD50 (CD1 mice [5]; ref [14]): 138 mg/kg; IC50 (hAChE [6]; ref [14]): 0.0073 ± 0.0006 µM
